Source: ChEMBL document CHEMBL3259619, “Antibacterial activity of a series of N2,N4-disubstituted quinazoline-2,4-diamines” (J Med Chem, 2014)
Values after ≈ are worked out from the molar mass of the structure shown. Active and inactive are the calls of the source. How the calls were made is not given here.

Columns and labels:
Staphylococcus aureus [1] = test: Antimicrobial activity against methicillin-resistant Staphylococcus aureus CBD-635 assessed as complete inhibition of bacterial growth after overnight incubation; type: functional
Staphylococcus aureus [2] = test: Antimicrobial activity against methicillin-resistant Staphylococcus aureus CBD-635 assessed as zone of inhibition at 5 mg/ml after 24 hrs by disk diffusion assay; type: functional; conditions: CBD-635, 24 h, read-out: IZ
Staphylococcus aureus [3] = test: Antimicrobial activity against methicillin-resistant Staphylococcus aureus CBD-635 assessed as complete inhibition of bacterial growth at 5 times MIC after overnight incubation in presence of tetrahydrofolic acid; type: functional, organism-based
Bacillus subtilis = test: Antimicrobial activity against Bacillus subtilis; type: functional, organism-based
Staphylococcus aureus [4] = test: Antimicrobial activity against Staphylococcus aureus; type: functional, organism-based
physchem [5] = conditions: pampa, pH 7.4
physchem [6] = conditions: pampa, pH 4
Staphylococcus aureus [7] = test: Antimicrobial activity against N2,N4-dibenzylquinazoline-2,4-diamine-induced methicillin-resistant Staphylococcus aureus CBD-635 mutant M2 assessed as complete inhibition of bacterial growth after overnight incubation; type: functional
Staphylococcus aureus [8] = test: Antimicrobial activity against N2,N4-dibenzylquinazoline-2,4-diamine-induced methicillin-resistant Staphylococcus aureus CBD-635 mutant M7 assessed as complete inhibition of bacterial growth after overnight incubation; type: functional
Staphylococcus aureus [9] = test: Antimicrobial activity against N2,N4-dibenzylquinazoline-2,4-diamine-induced methicillin-resistant Staphylococcus aureus CBD-635 mutant M5 assessed as complete inhibition of bacterial growth after overnight incubation; type: functional
Staphylococcus aureus [10] = test: Antimicrobial activity against N2,N4-dibenzylquinazoline-2,4-diamine-induced methicillin-resistant Staphylococcus aureus CBD-635 mutant M6 assessed as complete inhibition of bacterial growth after overnight incubation; type: functional
Staphylococcus aureus [11] = test: Antimicrobial activity against N2,N4-dibenzylquinazoline-2,4-diamine-induced methicillin-resistant Staphylococcus aureus CBD-635 mutant M4 assessed as complete inhibition of bacterial growth after overnight incubation; type: functional
Staphylococcus aureus [12] = test: Antimicrobial activity against N2,N4-dibenzylquinazoline-2,4-diamine-induced methicillin-resistant Staphylococcus aureus CBD-635 mutant M1 assessed as complete inhibition of bacterial growth after overnight incubation; type: functional
Staphylococcus aureus [13] = test: Antimicrobial activity against N2,N4-dibenzylquinazoline-2,4-diamine-induced methicillin-resistant Staphylococcus aureus CBD-635 mutant M3 assessed as complete inhibition of bacterial growth after overnight incubation; type: functional

SMILES	MIC (Staphylococcus aureus [1]) [µM]	zone of inhibition at 5000 µg/mL (Staphylococcus aureus [2]) [mm]	inhibition (Staphylococcus aureus [3])	also measured
CC(C)Nc1nc(NCc2ccco2)c2cccc(Cl)c2n1	32 (≈ 10.1 µg/mL)	10	inactive	–
Cc1ccc(Nc2nc(-c3ccccc3)nc3ccccc23)cc1	–	–	–	EC50 (Bacillus subtilis): 0.7 µg/mL (≈ 2.25 µM); MIC (Bacillus subtilis): 1 µg/mL (≈ 3.21 µM); EC50 (Staphylococcus aureus [4]): 0.8 µg/mL (≈ 2.57 µM); MIC (Staphylococcus aureus [4]): 10 µg/mL (≈ 32.1 µM)
CNC(=C[N+](=O)[O-])NCCSCc1ccc(CN(C)C)o1.Cl [RANITIDINE HYDROCHLORIDE]	–	–	–	Papp (physchem [5]): 2.2 ×10⁻⁶ cm/s; Papp (physchem [6]): 5.2 ×10⁻⁶ cm/s
Clc1ccc(CNc2nc(NCc3ccccc3)c3ccccc3n2)cc1	27 (≈ 10.1 µg/mL)	–	inactive	MIC (Staphylococcus aureus [7]): 2.7 µM (≈ 1.01 µg/mL); MIC (Staphylococcus aureus [8]): 2.7 µM (≈ 1.01 µg/mL); MIC (Staphylococcus aureus [9]): 2.7 µM (≈ 1.01 µg/mL); MIC (Staphylococcus aureus [10]): 2.7 µM (≈ 1.01 µg/mL); MIC (Staphylococcus aureus [11]): 2.7 µM (≈ 1.01 µg/mL); MIC (Staphylococcus aureus [12]): 27 µM (≈ 10.1 µg/mL); MIC (Staphylococcus aureus [13]): 2.7 µM (≈ 1.01 µg/mL)
CC(C)(C)Nc1nc(NCc2ccco2)c2ccccc2n1	340 (≈ 101 µg/mL)	9	inactive	–
CC(C)Nc1nc(NCc2ccco2)c2ccccc2n1	180 (≈ 50.8 µg/mL)	10	inactive	–
CC(C)Nc1nc(NCc2ccco2)c2c(Cl)cccc2n1	> 78	9	inactive	–
Clc1ccc(Nc2nc(NCc3ccco3)c3ccccc3n2)cc1	29 (≈ 10.2 µg/mL)	10	inactive	–
CCCCNc1nc(NCc2ccccc2)c2ccc(Cl)cc2n1	0.73 (≈ 0.249 µg/mL)	–	inactive	MIC (Staphylococcus aureus [7]): 0.73 µM (≈ 0.249 µg/mL); MIC (Staphylococcus aureus [8]): 0.73 µM (≈ 0.249 µg/mL); MIC (Staphylococcus aureus [9]): 0.73 µM (≈ 0.249 µg/mL); MIC (Staphylococcus aureus [10]): 0.73 µM (≈ 0.249 µg/mL); MIC (Staphylococcus aureus [11]): 0.73 µM (≈ 0.249 µg/mL); MIC (Staphylococcus aureus [12]): 0.73 µM (≈ 0.249 µg/mL); MIC (Staphylococcus aureus [13]): 0.73 µM (≈ 0.249 µg/mL)
Cc1cccc2c(NCc3ccco3)nc(NC(C)C)nc12	340 (≈ 101 µg/mL)	10	inactive	–
CC(C)Nc1nc(NCc2ccco2)c2ccc(Cl)cc2n1	32 (≈ 10.1 µg/mL)	12	inactive	–
CC(C)Nc1nc(NC2CCCC2)nc2ccccc12	190 (≈ 51.4 µg/mL)	8	inactive	–
CC(C)Nc1nc(NCc2ccccc2)c2ccccc2n1	34 (≈ 9.94 µg/mL)	13	inactive	–
c1coc(CNc2nc(NC3CCCCC3)nc3ccccc23)c1	78 (≈ 25.1 µg/mL)	10	inactive	–
CCCCNc1nc(Nc2ccccc2)nc2ccccc12	34 (≈ 9.94 µg/mL)	12	inactive	–
c1ccc(Nc2nc(Nc3ccccc3)c3ccccc3n2)cc1	32 (≈ 10 µg/mL)	10	inactive	–
CCCCNc1nc(Nc2ccccc2)c2ccccc2n1	34 (≈ 9.94 µg/mL)	14	inactive	–
CC(C)Nc1nc(NCc2ccco2)c2cc(Cl)ccc2n1	32 (≈ 10.1 µg/mL)	11	inactive	–
CNc1nc(NCc2ccco2)nc2ccccc12	390 (≈ 99.2 µg/mL)	10	inactive	–
Clc1ccc(CNc2nc(NCc3ccccc3)nc3ccccc23)cc1	67 (≈ 25.1 µg/mL)	–	inactive	MIC (Staphylococcus aureus [7]): 2.7 µM (≈ 1.01 µg/mL); MIC (Staphylococcus aureus [8]): 2.7 µM (≈ 1.01 µg/mL); MIC (Staphylococcus aureus [9]): 2.7 µM (≈ 1.01 µg/mL); MIC (Staphylococcus aureus [10]): 2.7 µM (≈ 1.01 µg/mL); MIC (Staphylococcus aureus [11]): 2.7 µM (≈ 1.01 µg/mL); MIC (Staphylococcus aureus [12]): 2.7 µM (≈ 1.01 µg/mL); MIC (Staphylococcus aureus [13]): 2.7 µM (≈ 1.01 µg/mL)
